# According to patent publication US8618046B2, “Treatment of atherosclerosis with cholesterol ester transport protein mimotopes” (Affiris AG, priority 2007, dated 2013):
# Where no end group is shown, it is not given here.
# Legend:
# [1] = system: original epitope (p4073); assay: Titer to the original CETP epitope in sera of immunised animals (peptide ELISA); assay type: in vivo, mouse; details: for antibody response to the original CETP epitope (in words): coupled to KLH, mice and rabbits; for titer, original epitope-BSA: FIG. 11, Balb/c mice, 30 μg peptide, Alum as adjuvant, S3, coating 1 μM p4073-BSA, detection αIgG
# Protocol: (§1) Balb/c mice/30 μg Peptide, 2 injections in 2 week intervals. S3=2 weeks after 3rd injection. Alum as adjuvant. Titers against original epitope (p4073) induced by injection of mimotopes. Well coating: 50 μl of 1 μM p4073-BSA or 1 μg/ml activated KLH. Detection: αIgG:
# (§2) Inhibiting as well as some non-inhibiting peptides were coupled to KLH and injected into mice (wildtype or CETP-transgenic mice; subcutaneously into the flank or intra-dermaly into the ears) or rabbits (subcutaneously into the flank) together with an appropriate adjuvant (aluminium hydroxide and Gerbu 100 for mice and aluminium hydroxide or CFA/IFA for rabbits).
# (§3) Titers to injected peptides as well as to the original CETP epitope were determined. In addition, for selected sera also immune response to CETP protein was measured (Results see FIGS. 7a to 7d and FIGS. 19a to 19e).
# (§4) Subcutaneous injections in the flank were performed in week 1, week 3 and week 7 with 30 μg peptide-KLH per mouse. Intradermal injections in the ear were performed in week 1, week 3 and week 6 with 10 μg peptide-KLH per mouse. Sera were taken 2 weeks after the 3rd injection. Vaccine formulation with Alum (always 1 mg per mouse): up to 250 μl, injected into one flank. The Alum formulation with 1 ml per mouse (500 μl into each flank) was in 1×PBS as buffer.
# Vaccine formulation with Gerbu Adjuvant 100 (Gerbu Cat. Nr. #3100; always 50 μl adjuvant per mouse): 200 μl, 100 μl injected into each flank comprising 1×HEPES as buffer. […]
# [2] = system: irrelevant peptide-BSA; assay: Titer to irrelevant peptide in sera of immunised animals (peptide ELISA); assay type: in vivo, mouse; details: for titer, p irrelevant: Table 1, mice, sera 2 weeks after 3rd injection; for titer, irrelevant peptide-BSA: FIG. 11, Balb/c mice, 30 μg peptide, Alum as adjuvant, S3, detection αIgG
# Protocol: as §1, §4
# Vaccine formulation with Gerbu Adjuvant 100 (Gerbu Cat. Nr. #3100; always 50 μl adjuvant per mouse): 200 μl, 100 μl injected into each flank comprising 1×HEPES as buffer.
# Female Balb/c mice, five mice per group, were subcutaneously immunized with 30 μg peptide coupled to KLH. Control groups were administered KLH or C-[…] (SEQ ID NO. 147). As adjuvant alum was used. […] The in vitro ELISA assay to determine the antibody titer was performed with pooled sera after two vaccinations in a two week interval (S2; see FIGS. 7a to 7d). The wells of the ELISA plate were coated with KLH (positive control), mimotope-BSA conjugate, C-[…] (SEQ ID NO. 147) and a irrelevant peptide-BSA conjugate (negative control). The detection was performed with anti-mouse IgG.
# [3] = system: recombinant GST-CETP; assay: Anti-protein ELISA of sera of immunised mice, plates coated with recombinant GST-CETP; assay type: in vivo; details: sera of immunised mice
# Text: (§5) FIGS. 12a and 12b show the in vivo induction of CETP specific antibodies by the administration of the mimotopes of the invention. Titers to p4073 and its correlation to titers to CETP of selected groups (which show high titers against p4073): gr.4, gr.9, gr.10, gr.14, gr.16-20/gr.1 (KLH), gr.2 (original epitope) as controls. Coating: recombinant GST-CETP or purified rabbit CETP, respectively:
# (§6) Sera of each group (5 Balb/c mice each) were combined, diluted 1:100 and tested on ELISA plates coated with recombinant GST-CETP or rabbit CETP, respectively. Detection of bound antibodies was with algG.
# as §3
# [4] = system: injected peptide-BSA; assay: Titer to the injected peptide in sera of immunised animals (peptide ELISA); assay type: in vivo, mouse; details: FIG. 11; Balb/c mice, 30 μg peptide, Alum as adjuvant; S3 = 2 weeks after 3rd injection; detection αIgG
# Protocol: Balb/c mice/30 μg Peptide, 2 injections in 2 week intervals. S3=2 weeks after 3rd injection. Alum as adjuvant. […] Detection: αIgG:
# as §2, §3
# Subcutaneous injections in the flank were performed in week 1, week 3 and week 7 with 30 μg peptide-KLH per mouse. Intradermal injections in the ear were performed in week 1, week 3 and week 6 with 10 μg peptide-KLH per mouse. Sera were taken 2 weeks after the 3rd injection. Vaccine formulation with Alum (always 1 mg per mouse): up to 250 μl, injected into one flank. The Alum formulation with 1 ml per mouse (500 μl into each flank) was in 1×PBS as buffer. […]
# [5] = system: rabbit CETP; assay: Anti-protein ELISA of sera of immunised mice, plates coated with purified rabbit CETP; assay type: in vivo, mouse; details: sera of immunised mice, purified rabbit CETP
# Text: as §5, §6, §3
Substance,"ELISA signal, recombinant GST-CETP ([3]; FIG. 12a)","titer, injected peptide-BSA [4]","titer, original epitope-BSA [1]","titer, irrelevant peptide-BSA [2]","ELISA signal, rabbit CETP ([5]; FIG. 12a)",also measured
C-RMFPESFLDTLW (N-terminal Cys; CETP mimotope) [P12-21],,,,,,antibody response to the original CETP epitope (in words) [1]: induced an immune response to the original CETP epitope in wt mice and in rabbits
C-SANPRDFLETLF (N-terminal Cys; CETP mimotope) [P12-19],,,,,,antibody response to the original CETP epitope (in words) [1]: induced an immune response to the original CETP epitope in wt mice and in rabbits
C-TIYDSFLDSLAS (N-terminal Cys; CETP mimotope) [P12-37],,,,,,antibody response to the original CETP epitope (in words) [1]: did not induce an antibody response to the original epitope
p4187-KLH: F3-34 C-TFLSSLA coupled to KLH (CTFLSSLA; also: coupled to KLH),,,,,,"titer, p irrelevant ([2]; Alum s.c. (30 μg peptide)): no titer; titer, p irrelevant ([2]; KLH/Gerbu s.c. (30 μg peptide)): no titer"
p4188-KLH: F3-38 C-GFLDSLM coupled to KLH (CGFLDSLM; also: coupled to KLH),,,,,,"titer, p irrelevant ([2]; Alum s.c. (30 μg peptide)): no titer; titer, p irrelevant ([2]; KLH/Alum i.d. (10 μg peptide)): no titer"
p4223-KLH: F2-9; C-SFLDTLT coupled to KLH (CSFLDTLT; also: coupled to KLH),,,,,,"titer, p irrelevant ([2]; Alum s.c. (30 μg peptide)): no titer"
p4227-KLH: P12-19; C-SANPRDFLETLF coupled to KLH (CSANPRDFLETLF; also: coupled to KLH),,,,,,"titer, P4073 (FGFPEHLLVDFLQSLS) ([1]; Table 1, KLH/Alum i.d. (10 μg peptide), mice, sera 2 weeks after 3rd injection): no titer; titer, p irrelevant ([2]; Alum s.c. (30 μg peptide)): no titer; titer, p irrelevant ([2]; KLH/Alum i.d. (10 μg peptide)): no titer"
p4228-KLH: P12-21; C-RMFPESFLDTLW coupled to KLH (CRMFPESFLDTLW; also: coupled to KLH),,,,,,"titer, p irrelevant ([2]; KLH/Alum i.d. (10 μg peptide)): no titer; titer, p irrelevant ([2]; KLH/Gerbu s.c. (30 μg peptide)): no titer"
p4324-KLH: C-FGFPSHLIIDWAQSLS coupled to KLH (CFGFPSHLIIDWAQSLS; also: coupled to KLH),0.58,12.570,7.600,10,0.28,
p4340-KLH: C-PGFPAHVSIDWLQSLS coupled to KLH (CPGFPAHVSIDWLQSLS; also: coupled to KLH),0.49,18.100,15.640,10,0.21,
p4341-KLH: C-WGFPAHVSIDWLQSLS coupled to KLH (CWGFPAHVSIDWLQSLS; also: coupled to KLH),0.39,10.350,5.500,10,0.18,
p4342-KLH: C-FSFPAHVSIDWLQSLS coupled to KLH (CFSFPAHVSIDWLQSLS; also: coupled to KLH),,4.620,1.610,10,,"ELISA signal, recombinant GST-CETP ([3]; FIG. 12b): 0.38; ELISA signal, rabbit CETP ([5]; FIG. 12b): 0.41"
p4344-KLH: C-FDFPAHVSIDWLQSLS coupled to KLH (CFDFPAHVSIDWLQSLS; also: coupled to KLH),,12.200,3.580,10,,"ELISA signal, recombinant GST-CETP ([3]; FIG. 12b): 0.35; ELISA signal, rabbit CETP ([5]; FIG. 12b): 0.43"
p4345-KLH: C-FATPSHLIIDWLQSLS coupled to KLH (CFATPSHLIIDWLQSLS; also: coupled to KLH),,8.380,1.270,10,,"ELISA signal, recombinant GST-CETP ([3]; FIG. 12b): 0.39; ELISA signal, rabbit CETP ([5]; FIG. 12b): 0.46"
p4347-KLH: C-FGFPAHVSIDWLQLLS coupled to KLH (CFGFPAHVSIDWLQLLS; also: coupled to KLH),0.35,12.000,9.160,10,0.2,
p4351-KLH: C-FGFPAHVSIDWLQYLS coupled to KLH (CFGFPAHVSIDWLQYLS; also: coupled to KLH),,2.950,2.400,10,,"ELISA signal, recombinant GST-CETP ([3]; FIG. 12b): 0.54; ELISA signal, rabbit CETP ([5]; FIG. 12b): 0.59"
p4352-KLH: C-FGFPAHVSIDWLQSIS coupled to KLH (CFGFPAHVSIDWLQSIS; also: coupled to KLH),0.48,19.680,12.070,10,0.28,
p4353-KLH: C-FGFPAHVSIDWLQSLT coupled to KLH (CFGFPAHVSIDWLQSLT; also: coupled to KLH),0.57,11.200,8.650,10,0.39,
p4358-KLH: C-FGFPAHISIDWLQSLS coupled to KLH (CFGFPAHISIDWLQSLS; also: coupled to KLH),0.68,16.500,12.940,10,0.58,
p4359-KLH: C-FGFPAHIIIDWLQSLS coupled to KLH (CFGFPAHIIIDWLQSLS; also: coupled to KLH),0.79,8.540,5.340,10,0.54,
p4366-KLH: C-FGFPSHLIIDWSQSLS coupled to KLH (CFGFPSHLIIDWSQSLS; also: coupled to KLH),,4.700,3.600,10,,"ELISA signal, recombinant GST-CETP ([3]; FIG. 12b): 0.4; ELISA signal, rabbit CETP ([5]; FIG. 12b): 0.65"
